This is an account of results in ChEMBL document CHEMBL2407012, “Structural and biological exploration of phe(3)-phe(4)-modified endomorphin-2 peptidomimetics” (ACS Med Chem Lett, 2013).

SMILES strings stand for the structures. pKi: −log10 of the molar value.

In assay [1] the target is Delta-type opioid receptor (Homo sapiens, UniProt P41143). Briefly: Displacement of [3H]DPDPE from delta opioid receptor (unknown origin) expressed in CHO cells after 90 mins by liquid scintillation counting. The format is cell-based. (In general: Displacement assays read how much labelled ligand stays bound in the presence of the test substance.)
Sequence of Delta-type opioid receptor (P41143 whole entry): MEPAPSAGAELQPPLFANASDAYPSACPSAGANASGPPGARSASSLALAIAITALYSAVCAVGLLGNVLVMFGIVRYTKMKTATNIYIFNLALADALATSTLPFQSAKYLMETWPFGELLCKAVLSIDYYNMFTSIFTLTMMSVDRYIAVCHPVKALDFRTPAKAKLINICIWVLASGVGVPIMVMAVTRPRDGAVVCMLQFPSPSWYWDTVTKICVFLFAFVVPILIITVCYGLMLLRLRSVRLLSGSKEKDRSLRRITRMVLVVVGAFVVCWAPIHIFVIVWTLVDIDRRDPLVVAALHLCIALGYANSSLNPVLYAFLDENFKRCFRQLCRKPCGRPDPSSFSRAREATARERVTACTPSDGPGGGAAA
Another assay deals with Mu-type opioid receptor (Homo sapiens, UniProt P35372). The assay can be described thus: Displacement of [3H]DAMGO from mu opioid receptor (unknown origin) expressed in CHO cells after 90 mins by liquid scintillation counting. The format is cell-based.
Sequence of Mu-type opioid receptor (P35372 whole entry): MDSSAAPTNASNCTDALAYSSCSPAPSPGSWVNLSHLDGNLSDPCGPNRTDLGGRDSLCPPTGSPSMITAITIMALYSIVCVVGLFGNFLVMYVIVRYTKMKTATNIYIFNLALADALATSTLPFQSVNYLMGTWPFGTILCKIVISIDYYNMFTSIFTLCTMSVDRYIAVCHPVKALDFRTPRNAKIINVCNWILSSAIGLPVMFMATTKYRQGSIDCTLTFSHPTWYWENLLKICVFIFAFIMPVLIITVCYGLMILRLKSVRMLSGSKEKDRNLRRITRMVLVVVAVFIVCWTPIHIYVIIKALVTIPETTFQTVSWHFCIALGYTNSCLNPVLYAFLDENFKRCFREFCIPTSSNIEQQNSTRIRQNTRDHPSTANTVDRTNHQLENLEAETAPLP

As to `NC(=O)[C@@H](CNC(=O)C[C@H](Cc1ccccc1)NC(=O)[C@@H]1CCCN1C(=O)[C@@H](N)Cc1ccc(O)cc1)Cc1ccccc1`, the pKi – broadly, the negative decadic logarithm of the Ki, by convention in mol/L – is 5.87 in assay [1] and 8.26 on Mu-type opioid receptor.

As to `NC(=O)[C@H](CNC(=O)C[C@H](Cc1ccccc1)NC(=O)[C@@H]1CCCN1C(=O)[C@@H](N)Cc1ccc(O)cc1)Cc1ccccc1`, the pKi in assay [1] was 6.33; at Mu-type opioid receptor it was 8.48.

Take `NC(=O)[C@@H]1Cc2ccccc2CN(C(=O)C[C@H](Cc2ccccc2)NC(=O)[C@@H]2CCCN2C(=O)[C@@H](N)Cc2ccc(O)cc2)C1`: the pKi was 6.16 in assay [1] and 7.68 at Mu-type opioid receptor.

`NC(=O)[C@H](CNC(=O)[C@H](CNC(=O)[C@@H]1CCCN1C(=O)[C@@H](N)Cc1ccc(O)cc1)Cc1ccccc1)Cc1ccccc1`: the pKi in assay [1] was 6.04; on Mu-type opioid receptor, 7.00.

For `NC(=O)C[C@@H]1Cc2ccccc2CN1C(=O)C[C@H](Cc1ccccc1)NC(=O)[C@@H]1CCCN1C(=O)[C@@H](N)Cc1ccc(O)cc1`, the pKi is 5.78 in assay [1] and 7.70 at Mu-type opioid receptor.

Take `NC(=O)C[C@H](Cc1ccccc1)NC(=O)C[C@H](Cc1ccccc1)NC(=O)[C@@H]1CCCN1C(=O)[C@@H](N)Cc1ccc(O)cc1`: the pKi was 5.55 in assay [1] and 7.72 on Mu-type opioid receptor.

Turning to `NC(=O)[C@H]1Cc2ccccc2CN(C(=O)C[C@H](Cc2ccccc2)NC(=O)[C@@H]2CCCN2C(=O)[C@@H](N)Cc2ccc(O)cc2)C1`, the figures for the pKi (in assay [1]; on Mu-type opioid receptor) were 6.73 and 7.85, respectively.
